# Laboratory results published in ChEMBL document CHEMBL5518248, “Design, Synthesis, and Biological Evaluation of Novel Arylomycins against Multidrug-Resistant Gram-Negative Bacteria” (J Med Chem, 2024).
# Assays:
# Type in all cases: functional
# Details in all cases: time 18-20 hrs
# [1] = system: Escherichia coli; experiment: Antibacterial activity against Escherichia coli ATCC 35218 assessed as inhibition of bacterial growth measured after 18 to 20 hrs by broth microdilution method
# [2] = system: Escherichia coli; experiment: Antibacterial activity against Escherichia coli 14-2 assessed as inhibition of bacterial growth measured after 18 to 20 hrs by broth microdilution method
# [3] = system: Escherichia coli; experiment: Antibacterial activity against Escherichia coli 14-4 assessed as inhibition of bacterial growth measured after 18 to 20 hrs by broth microdilution method
# [4] = system: Klebsiella pneumoniae; experiment: Antibacterial activity against Klebsiella pneumoniae 15-1 assessed as inhibition of bacterial growth measured after 18 to 20 hrs by broth microdilution method
# [5] = system: Klebsiella pneumoniae; experiment: Antibacterial activity against Klebsiella pneumoniae 15-4 assessed as inhibition of bacterial growth measured after 18 to 20 hrs by broth microdilution method
# [6] = system: Klebsiella pneumoniae; experiment: Antibacterial activity against Klebsiella pneumoniae 15-5 assessed as inhibition of bacterial growth measured after 18 to 20 hrs by broth microdilution method
# [7] = system: Acinetobacter baumannii; experiment: Antibacterial activity against Acinetobacter baumannii 17-2 assessed as inhibition of bacterial growth measured after 18 to 20 hrs by broth microdilution method
# [8] = system: Acinetobacter baumannii; experiment: Antibacterial activity against Acinetobacter baumannii 17-8 assessed as inhibition of bacterial growth measured after 18 to 20 hrs by broth microdilution method
# [9] = system: Pseudomonas aeruginosa; experiment: Antibacterial activity against Pseudomonas aeruginosa 17-1 assessed as inhibition of bacterial growth measured after 18 to 20 hrs by broth microdilution method
# [10] = system: Pseudomonas aeruginosa; experiment: Antibacterial activity against Pseudomonas aeruginosa 19-5 assessed as inhibition of bacterial growth measured after 18 to 20 hrs by broth microdilution method
MIC [1] [µg/mL],MIC [2] [µg/mL],MIC [3] [µg/mL],MIC [4] [µg/mL],MIC [5] [µg/mL],MIC [6] [µg/mL],MIC [7] [µg/mL],MIC [8] [µg/mL],MIC [9] [µg/mL],MIC [10] [µg/mL],Compound
4,8,8,16,16,16,16,16,> 64,> 64,Cc1nc(-c2ccc(C(C)(C)C)cc2)ncc1C(=O)N[C@@H](CCN)C(=O)N(C)[C@@H]1C(=O)N[C@@H](C)C(=O)N[C@H](C(=O)CC#N)Cc2ccc(OCCN)c(c2)-c2cc1ccc2OCCN.O=C(O)C(F)(F)F.O=C(O)C(F)(F)F.O=C(O)C(F)(F)F.O=C(O)C(F)(F)F
≤ 0.03,0.06,≤ 0.03,0.25,0.25,0.25,0.5,0.5,4,2,CCCCCSSCc1ccc(-c2ncc(C(=O)N[C@@H](CCN)C(=O)N(C)[C@@H]3C(=O)N[C@@H](C)C(=O)N[C@H](C(=O)NCC#N)Cc4ccc(OCCN)c(c4)-c4cc3ccc4OCCN)c(C)n2)cc1.O=C(O)C(F)(F)F.O=C(O)C(F)(F)F.O=C(O)C(F)(F)F.O=C(O)C(F)(F)F
32,64,64,64,64,64,> 64,> 64,> 64,> 64,Cc1nc(-c2ccc(C(C)(C)C)cc2)ncc1C(=O)N[C@@H](CCN)C(=O)N(C)[C@@H]1C(=O)N[C@@H](C)C(=O)N[C@H](NC(=O)NC#N)Cc2ccc(OCCN)c(c2)-c2cc1ccc2OCCN.O=C(O)C(F)(F)F.O=C(O)C(F)(F)F.O=C(O)C(F)(F)F.O=C(O)C(F)(F)F
≤ 0.03,0.06,0.125,≤ 0.03,0.06,≤ 0.03,8,2,> 64,> 64,Cc1nc(-c2ccc(C(C)(C)C)cc2)ncc1C(=O)N[C@@H](CCN)C(=O)N(C)[C@@H]1C(=O)N[C@@H](C)C(=O)N[C@H](C(=O)OCC=O)Cc2ccc(OCCN)c(c2)-c2cc1ccc2OCCN.Cl.Cl.Cl.Cl
0.06,0.125,0.125,0.25,0.25,0.25,2,1,8,8,Cc1nc(-c2ccc(CSSCCC(F)(F)F)cc2)ncc1C(=O)N[C@@H](CCN)C(=O)N(C)[C@@H]1C(=O)N[C@@H](C)C(=O)N[C@H](C(=O)NCC#N)Cc2ccc(OCCN)c(c2)-c2cc1ccc2OCCN.O=C(O)C(F)(F)F.O=C(O)C(F)(F)F.O=C(O)C(F)(F)F.O=C(O)C(F)(F)F
≤ 0.03,0.125,0.06,0.125,0.25,0.25,1,1,4,4,Cc1cc(-c2ncc(C(=O)N[C@@H](CCN)C(=O)N(C)[C@@H]3C(=O)N[C@@H](C)C(=O)N[C@H](C(=O)NCC#N)Cc4ccc(OCCN)c(c4)-c4cc3ccc4OCCN)c(C)n2)ccc1CSSC(C)(C)C.O=C(O)C(F)(F)F.O=C(O)C(F)(F)F.O=C(O)C(F)(F)F.O=C(O)C(F)(F)F
≤ 0.03,0.06,≤ 0.03,0.06,0.06,0.06,0.5,0.25,4,4,Cc1nc(-c2ccc(SSC(C)C)cc2)ncc1C(=O)N[C@@H](CCN)C(=O)N(C)[C@@H]1C(=O)N[C@@H](C)C(=O)N[C@H](C(=O)NCC#N)Cc2ccc(OCCN)c(c2)-c2cc1ccc2OCCN.O=C(O)C(F)(F)F.O=C(O)C(F)(F)F.O=C(O)C(F)(F)F.O=C(O)C(F)(F)F
0.5,4,1,0.25,1,0.5,64,16,64,64,CSC(=O)CNC(=O)[C@@H]1Cc2ccc(OCCN)c(c2)-c2cc(ccc2OCCN)[C@H](N(C)C(=O)[C@H](CCN)NC(=O)c2cnc(-c3ccc(C(C)(C)C)cc3)nc2C)C(=O)N[C@@H](C)C(=O)N1.O=C(O)C(F)(F)F.O=C(O)C(F)(F)F.O=C(O)C(F)(F)F.O=C(O)C(F)(F)F
≤ 0.03,0.06,0.06,0.125,0.125,0.125,0.5,0.5,4,4,Cc1nc(-c2ccc(CSSC(C)(C)C)cc2)nc(C)c1C(=O)N[C@@H](CCN)C(=O)N(C)[C@@H]1C(=O)N[C@@H](C)C(=O)N[C@H](C(=O)NCC#N)Cc2ccc(OCCN)c(c2)-c2cc1ccc2OCCN.O=C(O)C(F)(F)F.O=C(O)C(F)(F)F.O=C(O)C(F)(F)F.O=C(O)C(F)(F)F
≤ 0.03,≤ 0.03,0.125,0.5,0.25,0.25,1,0.5,4,4,Cc1nc(-c2ccc(CSSC3CCCCC3)cc2)ncc1C(=O)N[C@@H](CCN)C(=O)N(C)[C@@H]1C(=O)N[C@@H](C)C(=O)N[C@H](C(=O)NCC#N)Cc2ccc(OCCN)c(c2)-c2cc1ccc2OCCN.O=C(O)C(F)(F)F.O=C(O)C(F)(F)F.O=C(O)C(F)(F)F.O=C(O)C(F)(F)F
≤ 0.03,0.25,0.125,0.125,0.125,0.06,1,1,8,8,Cc1nc(-c2ccc(CSSC(C)(C)C)cc2)ccc1C(=O)N[C@@H](CCN)C(=O)N(C)[C@@H]1C(=O)N[C@@H](C)C(=O)N[C@H](C(=O)NCC#N)Cc2ccc(OCCN)c(c2)-c2cc1ccc2OCCN.O=C(O)C(F)(F)F.O=C(O)C(F)(F)F.O=C(O)C(F)(F)F.O=C(O)C(F)(F)F
0.25,0.5,0.5,0.5,1,1,4,2,16,16,CSSc1ccc(-c2ncc(C(=O)N[C@@H](CCN)C(=O)N(C)[C@@H]3C(=O)N[C@@H](C)C(=O)N[C@H](C(=O)NCC#N)Cc4ccc(OCCN)c(c4)-c4cc3ccc4OCCN)c(C)n2)cc1.O=C(O)C(F)(F)F.O=C(O)C(F)(F)F.O=C(O)C(F)(F)F.O=C(O)C(F)(F)F
0.125,0.25,0.25,0.5,0.5,0.25,2,1,32,16,CSCCSSCc1ccc(-c2ncc(C(=O)N[C@@H](CCN)C(=O)N(C)[C@@H]3C(=O)N[C@@H](C)C(=O)N[C@H](C(=O)NCC#N)Cc4ccc(OCCN)c(c4)-c4cc3ccc4OCCN)c(C)n2)cc1.O=C(O)C(F)(F)F.O=C(O)C(F)(F)F.O=C(O)C(F)(F)F.O=C(O)C(F)(F)F
0.125,0.25,0.25,0.25,0.25,1,16,4,> 64,> 64,Cc1nc(C2=CCC3(CC2)CC3)ncc1C(=O)N[C@@H](CCN)C(=O)N(C)[C@@H]1C(=O)N[C@@H](C)C(=O)N[C@H](C(=O)NCC#N)Cc2ccc(OCCN)c(c2)-c2cc1ccc2OCCN.O=C(O)C(F)(F)F.O=C(O)C(F)(F)F.O=C(O)C(F)(F)F.O=C(O)C(F)(F)F
4,16,4,8,16,16,> 64,64,> 64,> 64,Cc1nc(-c2ccc(C(C)(C)C)cc2)ncc1C(=O)N[C@@H](CCN)C(=O)N(C)[C@@H]1C(=O)N[C@@H](C)C(=O)N[C@H](C(=O)NN(C)CC#N)Cc2ccc(OCCN)c(c2)-c2cc1ccc2OCCN.Cl.Cl.Cl.Cl
0.25,0.5,0.5,1,2,1,8,2,> 64,> 64,COCCSSCc1ccc(-c2ncc(C(=O)N[C@@H](CCN)C(=O)N(C)[C@@H]3C(=O)N[C@@H](C)C(=O)N[C@H](C(=O)NCC#N)Cc4ccc(OCCN)c(c4)-c4cc3ccc4OCCN)c(C)n2)cc1.O=C(O)C(F)(F)F.O=C(O)C(F)(F)F.O=C(O)C(F)(F)F.O=C(O)C(F)(F)F
0.06,0.125,0.25,0.125,0.25,0.25,8,4,> 64,> 64,Cc1nc(-c2ccc(C(C)(C)C)cc2)ncc1C(=O)N[C@@H](CCN)C(=O)N(C)[C@@H]1C(=O)N[C@@H](C)C(=O)N[C@H](C(=O)OCC#N)Cc2ccc(OCCN)c(c2)-c2cc1ccc2OCCN.O=C(O)C(F)(F)F.O=C(O)C(F)(F)F.O=C(O)C(F)(F)F.O=C(O)C(F)(F)F
0.06,0.125,0.125,0.25,1,0.25,8,2,32,64,Cc1nc(-c2ccc(C3SCCS3)cc2)ncc1C(=O)N[C@@H](CCN)C(=O)N(C)[C@@H]1C(=O)N[C@@H](C)C(=O)N[C@H](C(=O)NCC#N)Cc2ccc(OCCN)c(c2)-c2cc1ccc2OCCN.O=C(O)C(F)(F)F.O=C(O)C(F)(F)F.O=C(O)C(F)(F)F.O=C(O)C(F)(F)F
